In one series the target is T1, HR23B (Homo sapiens, UniProt P54727).
T1 construct: ADRM1 and HR23B human full length proteins were purchased; purchased Abnova (Taipei, Taiwan)
Description: SPR analysis, immobilized GST-HR23B (GST control subtracted). The format is binding. The conditions noted are these: no kinetic analysis. The text has this:
(§1) SPR was utilized as an independent confirmation of the kinetic parameters between SQAP and the putative binding proteins. […] The recombinant proteins were then expressed in Escherichia coli and purified to homogeneity. In addition, full length, His-tagged ADRM1 and GST-tagged HR23B (GST-HR23B) were also used. The proteins were first immobilized on a CM5 sensor chip of the SPR biosensor (Biacore 3000). For GST-HR23B analysis, a GST protein was additionally immobilized and used as a control in order to eliminate possible nonspecific binding of SQAP. SQAP samples at different concentrations were then injected over the proteins immobilized on the sensor chip. As a negative control we used sulfoquynovosylpropanediol (SQP), which lacks the fatty acid moiety of SQAP (Fig. 1). […]
(§2) The binding kinetics of SCP-2, MFE-2, ADRM1, HR23B and FAK with SQAP and SQP were analyzed on a Biacore 3000 instrument (GE Healthcare, Little Chalfont, UK). […] The buffer of purified peptides was exchanged to HBS-P (150 mM NaCl, 0.005% Surfactant P20, 10 mM HEPES-NaOH pH 7.4) using a PD 10 column (GE Healthcare, Little Chalfont, UK) and the concentrations were quantified using DC protein assay kit (Bio-Rad Laboratories, Hercules, CA, USA). […] Kinetic parameters were determined by analyzing the data using BIAevaluation 4.1 software (GE Healthcare, Little Chalfont, UK).

Series [1] concerns FAK phosphorylation (Y397, Y925) in HUVEC cells. The series can be described thus: FAK phosphorylation level in HUVEC, Western blotting. In kind it is cell-based, human. The method, then: HUVEC cells were incubated for 20 h in serum-free medium in 60 mm dishes. SQAP, SQMG or SQP was added and incubated for 30 min followed by addition of 50 ng/mL VEGF (RD systems, Minneapolis, MN. USA) and incubation for another 30 min. FAK phosphorylation level was analyzed by Western blotting as described in the next section.
(§3) Cells were harvested and solubilized in RIPA buffer (20 mM Tris-HCl, pH 7.5, 1% Sodium deoxycholate, 150 mM NaCl, 5 mM EDTA, 1% Triton X-100, 0.1% SDS, 0.1%, 1 mM PMSF, 1 mM vanadate and 1 μg/mL leupeptin). Protein quantification was determined using the DC protein assay kit (Bio-Rad, Hercules, CA, USA). A total of 15 μg of each protein sample were separated by SDS–PAGE gels and blotted onto polyvinylidene difluoride membranes (Merck, Kenilworth, NJ, US). After blocking for 1 h with Blocking-One (Nacalai Tesque, Kyoto, Japan), proteins were detected by incubating the membranes with the primary antibody at 4 °C overnight (anti-Y397 2:2000, anti-Y925 5:2000 and anti-FAK 0.5:2000) followed by incubation with horseradish peroxidase-conjugated secondary antibodies at room temperature for 1 h (anti-mouse 0.5:2000 and anti-rabbit 0.4:2000).
A general note: In western blotting, separated proteins are transferred to a membrane and probed.

The next series concerns HUVEC cells. The series can be described thus: WST-8 cell viability assay, HUVEC. In kind it is cell-based, human. Conditions: 17 h, SQAP 10 and 20 µM. The method, then: (§4) HUVEC and A549 cells were seeded into a 96-well culture plate (2 × 10^4 cells/well). The following day, cells were treated with SQAP or vehicle in a medium containing 1% FBS and VEGF (50 ng/mL) for 17 h (HUVEC) or fibronectin (10 μg/mL) for 46 h (A549). Cell viability was measured using Cell Count Reagent SF (Nacalai Tesque, Kyoto, Japan) following the manufacturer’s instructions. Briefly, 1/10 volume of the WST-8 solution was added to each well, and the plates were incubated at 37 °C for 1 h. Then, cell viability was determined colorimetrically by measuring OD450 using a microplate reader on a Wallac ARVO 5X microplate reader (Perkin Elmer, Waltham, MA, USA).
(§5) control SQAP 10 µM SQAP 20 µM
(§6) Livecellswere measured with SF reagent under similarconditionsas describedin thewound healing
(§7) assayinFig.5. (A)HUVEC and (B)A549 cells.
(§8) (also on this page, place not known: Cell viability (%) Cell viability (%) Live cells were similar conditions as described in the wound assay in Fig. 5. (A) HUVEC (B) A549)
On the technique in general: Tetrazolium dyes change colour on reduction, which living cells bring about.

The next series has as its target T2, FAK (910–1052) (Homo sapiens, UniProt Q05397).
T2 construct: For FAK (910–1052) DNA was amplified; made in house; host or cells: E. coli BL21 (DE3)
Description: SPR analysis, immobilized His-tagged FAK (910-1052). The format is binding. Conditions: Biacore 3000, CM5 chip, 25 °C, read-out: dissociation constant (KD) for FAK.
From the text: as §1, §2
A general note: In SPR one partner is held on a chip, and binding of the other changes the refractive index at the surface.

Series [2] has as its system Akt phosphorylation at S473 in HUVEC. The series can be described thus: Akt phosphorylation in HUVEC, Western blotting. Conditions: treated for 21 h, 10 µM. The format is cell-based, human.
From the text: (§9) Furthermore, we looked at FAK signaling pathway to validate our results. Paxillin binds to FAK 919–938 residues which is a sequence contained within the region where SQAP is predicted to bind. Binding between paxillin and FAK results in paxillin phosphorylation at Y118[35][36]. Thus, we examined paxillin phosphorylation. […] Additionally, we studied Akt phosphorylation at S473 on account of FAK is a known factor in control of Akt activity. We observed that Akt phosphorylation was diminished when treated with SQAP or SQMG for 21 h (see Supplementary Fig. S3).
as §3, with “0.4:2000). […]” for “0.4:2000).”

Series [3] has as its system paxillin phosphorylation at Y118 in HUVEC. Description: Paxillin phosphorylation in HUVEC, Western blotting. In kind it is cell-based, human. The conditions noted are these: total paxillin unaltered.
From the text: as §9, §3

The test system of another series is A549 cells. Description: WST-8 cell viability assay, A549. In kind it is cell-based, human. Conditions: A549, 46 h, SQAP 10 and 20 µM. As for the experimental part:
as §4, §5, §6, §7, §8

T1 sequence (P54727 whole entry): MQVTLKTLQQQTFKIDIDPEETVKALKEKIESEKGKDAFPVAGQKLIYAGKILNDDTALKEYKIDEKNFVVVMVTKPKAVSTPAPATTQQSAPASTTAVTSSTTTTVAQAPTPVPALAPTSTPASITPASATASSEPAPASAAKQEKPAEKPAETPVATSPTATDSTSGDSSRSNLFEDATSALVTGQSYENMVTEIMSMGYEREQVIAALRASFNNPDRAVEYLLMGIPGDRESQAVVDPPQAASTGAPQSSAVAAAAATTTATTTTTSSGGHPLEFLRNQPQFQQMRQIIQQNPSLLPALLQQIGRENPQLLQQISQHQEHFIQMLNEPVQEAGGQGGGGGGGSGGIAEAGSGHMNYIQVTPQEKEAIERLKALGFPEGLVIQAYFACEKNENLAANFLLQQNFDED
T2 sequence (Q05397 910-1052): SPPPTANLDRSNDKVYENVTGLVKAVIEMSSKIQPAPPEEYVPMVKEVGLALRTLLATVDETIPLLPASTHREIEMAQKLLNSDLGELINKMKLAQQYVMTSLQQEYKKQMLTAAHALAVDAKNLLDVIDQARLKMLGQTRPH

One may read the Kd as the concentration at which binding is half-saturated. With `CCCCCCCCCCCCCCCCCC(=O)OCCCO[C@H]1O[C@H](CS(=O)(=O)O)[C@@H](O)[C@H](O)[C@H]1O` [SQAP, sulfoquynovosylacylpropanediol], the “binding to HR23B (SPR response)” value on HR23B is “specific binding response of SQAP in a dose-dependent manner”. In addition, the “phosphorylation level of FAK at Y397 and at Y925 after VEGF stimulation” value in series [1] (VEGF 50 ng/mL, 1 h) is reported as “appreciably reduced”. The “phosphorylation of FAK in the absence of VEGF” value in series [1] (no VEGF, within 1 h) is reported as “inhibited”. Besides, the “cytotoxicity (WST-8 cell viability)” value in the series with HUVEC cells and in the series with A549 cells was “noncytotoxic” each time. For the same compound, the Kd on FAK (910–1052) stood at 3.24 µM. Also, the “Akt phosphorylation at S473” value in series [2] is listed as “diminished”. Further, the “paxillin phosphorylation at Y118” value in series [3] is “inhibition of paxillin-phosphorylation”.

The values are drawn from article PMC4601023, “Novel anticancer agent, SQAP, binds to focal adhesion kinase and modulates its activity” (Scientific Reports, 2015).
